From patent publication US8604167B2, “CD133 epitopes” (ImmunoCellular Therapeutics, Ltd., priority 2009, dated 2013)

Assays:
CD8+ T cells [1] = test: Peptide-HLA-A2 dimer staining of CTL stimulated with peptide-pulsed DC; format: cell-based, human; conditions: for peptide dimer staining relative to background, in words: summary of Table 7
Description: (§1) HLA-A2 positive PBMC isolated by leukapheresis from two healthy human subjects were obtained from HemaCare Corporation (Van Nuys, Calif.). The PBMC from each subject were used to prepare CD8+ T cells and autologous dendritic cells for stimulation with immunogenic peptides. Following stimulation, the T cells were subjected to functional assays.
(§2) CD8+ T cells were prepared from each subject's PBMC by positive selection using CD8 MicroBeads (Miltenyi Biotec, Bergisch Gladbach, Germany), according to the manufacturer's instructions.
(§3) Autologous DC were prepared from adherent PBMC (2×10^6 cells/ml) cultured for 5 days in the presence of 500 IU/ml granulocyte macrophage colony-stimulating factor (Leucomax; Schering-Plough, Kenilworth, N.J.) and 500 IU/ml IL-4 (R&D Systems, Minneapolis, Minn.) in complete medium [RPMI 1640 supplemented with 10% heat-inactivated human AB serum, […] L-glutamine (Invitrogen) and antibiotics]. On day 5, DC maturation was induced by addition of 50 ng/ml TNF-α. On day 7, the mature DC were collected and pulsed with 20 μg/ml peptide for 4 hours at 20° C. Peptide-pulsed DC not used immediately were frozen for later use.
The peptide pulsed matured DC were diluted to 3×10^5 cells/mL in CTL complete medium and irradiated at 2800 Rads. The initial in vitro stimulation was performed at a DC:T cell ratio of 1:5 by plating 100 μL/well of each batch of DC into a 96 well round bottom tissue culture plate (3×10^4 DC/well). One plate was prepared per peptide. To all wells, 100 μL of the CD8+ enriched T cell population was added at 1.5×10^6 cells/mL was added, resulting in a final concentration of 1.5×10^5 T-cells/well. Plates were incubated at 37° C., 5% carbon dioxide, and high humidity.
On days 7 and 14, cryopreserved peptide pulsed mature DC were thawed and used to restimulate the T-cells. Cryopreserved samples of each peptide pulsed DC batch were removed from liquid nitrogen and thawed rapidly in a 37° C. water-bath. Samples were diluted at least 1:10 with AIM V medium (Invitrogen, Carlsbard, Calif.). Samples were washed twice by centrifugation at 400 g for 7 minutes, and representative samples were evaluated for cell concentration and viability. Each DC batch was diluted to 3×10^5 cells/mL in CTL complete medium containing 20 U/mL IL-2, 10 ng/mL IL-7, and 2 μg/mL of the specific peptide, and the DC were irradiated with 2800 Rads. In vitro stimulation plates were removed carefully from the incubator and 90 μL of supernatant (no cells) were removed from each well. To each well, 100 μL of the appropriate DC batch was added. Plates were then incubated further at 37° C., 5% carbon dioxide, and high humidity.
After the second in vitro stimulation, the plates were checked daily for T-cell proliferation. When required, plates were split (one plate will become two plates) to avoid overgrowth of the CTL. […] The plates were mixed to ensure a homogenous population, then 90 μL of each CTL well was transferred into a new 96 well U bottomed plate. When splitting was performed within 3 days of the last in vitro stimulation, 100 μL of CTL complete medium containing 20 U/mL IL-2 and 10 ng/mL IL-7 was added. If splitting was performed later than 3 days from the last in vitro stimulation, 100 μL of complete CTL medium containing 40 U/mL IL-2 and 20 ng/mL IL-7 was added. Split plates were returned to the incubator at 37° C., 5% carbon dioxide, and high humidity.
On day 21, the T cells were stimulated a fourth time. The process described for in vitro stimulations 2-3 was repeated with the exception that IL-2 was replaced with 25 ng/mL IL-15.
Stimulated CTL were assayed for staining using peptide-HLA-A2 dimers. Cells were collected 19 days after the third stimulation (subject 1) or 6 days after the fourth stimulation (subjects 1 and 2).

CD8+ T cells [2] = test: IFN-γ ELISPOT of CTL stimulated with peptide-pulsed DC; format: cell-based, human; set-up: key to ELISPOT IFN-γ spots vs negative control: ++: Wells that clearly had more spots than the negative control were indicated as positive
Description: as §1, §2
as §3, with “use. […]” for “use.”
On days 7 and 14, cryopreserved peptide pulsed mature DC were thawed and used to restimulate the T-cells. […] Samples were washed twice by centrifugation at 400 g for 7 minutes, and representative samples were evaluated for cell concentration and viability. […]

HLA-A*0201 = HLA-A*0201 (Homo sapiens, UniProt P04439, D140Y/D185E/D98H/E176V/E277Q/G131W/G231S/I119V/I121R/I166T/I218V/L300P/L318F/N151K/N90K/P208A/P217A/Q86G/Q94H/R138H/R169H/T345S); test: REVEAL MHC binding assay, HLA-A*0201; conditions: HLA-A*0201 binding, relative to positive control peptide
Excerpt: Fifty-five of the candidate peptides were assembled with HLA-A*0201 and analyzed for MHC binding to determine their level of incorporation into MHC molecules using the REVEAL™ MHC binding assay (ProImmune Ltd., Oxford, UK). Binding to MHC molecules was compared to that of two known T-cell epitopes: an intermediate control peptide and a positive control peptide with weak and very strong binding properties, respectively. Eleven peptides bound to HLA-A*0201 as well or better than the positive control, as indicated on Table 5.

Row | Substance | percentages of cells that stained positive (above background) for both dimer and CD8 (CD8+ T cells [1]; Subject 1, 3rd stim) | percentages of cells that stained positive (above background) for both dimer and CD8 (CD8+ T cells [1]; Subject 1, 4th stim) | percentages of cells that stained positive (above background) for both dimer and CD8 (CD8+ T cells [1]; Subject 2, 4th stim) | peptide dimer staining relative to background, in words (CD8+ T cells [1]) | ELISPOT IFN-γ spots vs negative control (CD8+ T cells [2]; Subject 2, 4th stim) | ELISPOT result in words (CD8+ T cells [2]; subject 3 (so in the source)) | % Positive Control (HLA-A*0201)
1 | 28 (ILSAFSVYV; listed as Homo sapiens) [compound 28] | 4.15% | 0.12% | 14.08% | stained moderately above background | – | – | –
2 | 21 (FLLPALIFA; listed as Homo sapiens) [compound 21] | 20.43% | 13.23% | 21.18% | stained strongly above background | – | – | –
3 | 11 (YLQWIEFSI; listed as Homo sapiens) [compound 11] | 38.64% | 20.74% | 19.39% | stained strongly above background | ++ | clearly positive | –
4 | 20 (GLLERVTRI; listed as Homo sapiens) [compound 20] | 0.27% | −0.41% | −0.32% | indistinguishable from background | – | – | –
5 | 19 (SQLNSNPEL; listed as Homo sapiens) [compound 19] | – | – | – | – | – | – | 163.06%
